Experimental data as given in ChEMBL document CHEMBL1201862, “PubChem BioAssay data set” (2004).
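How tested: cells in 96-well plates exposed to compound for 48 hours at five concentrations. GI50: concentration for 50% inhibition of growth.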 Active and inactive are the calls of the source. Cut-off read from the data, not from the text of the source: active = GI50 up to about 1.1 µM and inactive = higher.

Columns and labels:
Assay in all cases: DTP human tumour cell line panel, 48 h
ACHN = test system: ACHN
COLO 205 = test system: COLO 205
HCC 2998 = test system: HCC 2998
HT-29 = test system: HT-29
KM12 = test system: KM12
LOX IMVI = test system: LOX IMVI
M14 = test system: M14
NCI-H226 = test system: NCI-H226
OVCAR-3 = test system: OVCAR-3
SNB-19 = test system: SNB-19
UACC-257 = test system: UACC-257
UO-31 = test system: UO-31
IGROV-1 = test system: IGROV-1
NCI-H23 = test system: NCI-H23

Measured: GI50

CC(C)CCC[C@@H](C)C1CCC2[C@@H]3CC=C4C[C@@H](OC(=O)CCC(=O)NCC[N+](C)(C)CCCS(=O)(=O)[O-])CC[C@]4(C)C3CC[C@@]21C (some centres undefined)
inactive: ACHN 23.9 µM | COLO 205 19.6 µM | HCC 2998 20.6 µM | HT-29 26.7 µM | KM12 20.5 µM | LOX IMVI 17.2 µM | M14 19.7 µM | NCI-H226 27.4 µM | OVCAR-3 17.9 µM | SNB-19 24.3 µM | UACC-257 23.2 µM | UO-31 41 µM

COc1ccc(/C(=N\NC(=S)NN)C(c2ccc(OC)cc2)C2C(=O)Oc3ccccc32)cc1 (centres undefined)
inactive: ACHN > 10 µM | COLO 205 > 10 µM | HCC 2998 9.31 µM | HT-29 > 10 µM | IGROV-1 > 10 µM | KM12 > 10 µM | LOX IMVI > 10 µM | M14 > 10 µM | NCI-H226 > 10 µM | NCI-H23 > 10 µM | OVCAR-3 > 10 µM | SNB-19 > 10 µM | UACC-257 > 10 µM | UO-31 > 10 µM

O=c1nc(NC(c2ccccc2)(c2ccccc2)c2ccccc2)ccn1CCCl
inactive: ACHN 27.8 µM | COLO 205 25.6 µM | HCC 2998 14.9 µM | HT-29 17 µM | IGROV-1 19.3 µM | KM12 17.1 µM | LOX IMVI 17.1 µM | NCI-H226 21.2 µM | NCI-H23 23.2 µM | OVCAR-3 13.2 µM | SNB-19 15.1 µM | UACC-257 > 10 µM | UO-31 47.6 µM

Cc1c(C(=O)CSc2nc3ccccc3c(=O)n2-c2ccccc2)c(=O)n(-c2ccccc2)n1C
inactive: ACHN 35.2 µM | COLO 205 > 100 µM | HCC 2998 > 100 µM | HT-29 > 100 µM | IGROV-1 > 100 µM | KM12 54.7 µM | LOX IMVI 42.1 µM | M14 94.2 µM | NCI-H226 23.3 µM | NCI-H23 62.4 µM | OVCAR-3 27.6 µM | SNB-19 44.4 µM | UACC-257 47.3 µM | UO-31 34.8 µM

Nc1ncnc(NC2C=C(CO)C(O)C2O)c1[N+](=O)[O-] (centres undefined)
inactive: ACHN > 100 µM | COLO 205 60.3 µM | HCC 2998 > 100 µM | HT-29 > 100 µM | IGROV-1 > 100 µM | KM12 > 100 µM | LOX IMVI > 100 µM | M14 > 100 µM | NCI-H226 > 100 µM | NCI-H23 > 100 µM | OVCAR-3 > 100 µM | SNB-19 > 100 µM | UACC-257 > 100 µM | UO-31 > 100 µM

COC1(OC)CCC2C1C1CCC(OC)(OC)C21 (centres undefined)
inactive: ACHN > 50 µM | COLO 205 > 50 µM | HCC 2998 > 50 µM | HT-29 > 50 µM | IGROV-1 > 50 µM | KM12 > 50 µM | M14 > 50 µM | NCI-H226 > 50 µM | NCI-H23 > 50 µM | OVCAR-3 > 50 µM | SNB-19 > 50 µM | UACC-257 > 50 µM | UO-31 > 50 µM

COC1=CC(=O)C2C(C1=O)[C@@H]1c3ccccc3C[C@H]21 (some centres undefined)
inactive: ACHN > 100 µM | COLO 205 > 100 µM | HCC 2998 > 100 µM | HT-29 > 100 µM | IGROV-1 > 100 µM | KM12 > 100 µM | LOX IMVI > 100 µM | M14 > 100 µM | NCI-H23 > 100 µM | OVCAR-3 > 100 µM | SNB-19 > 100 µM | UACC-257 > 100 µM | UO-31 > 100 µM

Nc1nc(CCC(=O)Nc2cccc(C(F)(F)F)c2)cc(-c2ccc3ccccc3c2)n1
inactive: ACHN > 100 µM | COLO 205 > 100 µM | HCC 2998 > 100 µM | HT-29 > 100 µM | IGROV-1 > 100 µM | KM12 > 100 µM | M14 > 100 µM | NCI-H226 > 100 µM | NCI-H23 > 100 µM | OVCAR-3 > 100 µM | SNB-19 > 100 µM | UACC-257 > 100 µM | UO-31 > 100 µM

CCc1nnc(S)n1/N=C/c1ccc(-c2ccc([N+](=O)[O-])cc2)o1
inactive: ACHN > 100 µM | COLO 205 > 100 µM | HCC 2998 > 100 µM | HT-29 > 100 µM | IGROV-1 > 100 µM | KM12 > 100 µM | LOX IMVI > 100 µM | M14 > 100 µM | NCI-H226 > 100 µM | NCI-H23 > 100 µM | OVCAR-3 > 100 µM | SNB-19 > 100 µM | UACC-257 > 100 µM | UO-31 > 100 µM

COC(=O)C1=C(C(=O)OC)C2(C)Nc3ccccc3C2=C(c2ccccc2)C1 (centres undefined)
inactive: ACHN 22.1 µM | COLO 205 19.2 µM | HCC 2998 26.2 µM | HT-29 27.7 µM | IGROV-1 22.1 µM | KM12 13.5 µM | LOX IMVI 25.7 µM | M14 17 µM | NCI-H23 19 µM | OVCAR-3 17.9 µM | SNB-19 24 µM | UACC-257 17.9 µM | UO-31 17.9 µM

O=c1cc(-c2ccccc2)oc2cc(OCC(O)COc3ccc4c(=O)cc(-c5ccccc5)oc4c3)ccc12
inactive: HT-29 > 100 µM | IGROV-1 > 100 µM | KM12 > 100 µM | LOX IMVI 25.3 µM | M14 > 100 µM | NCI-H23 43.9 µM | OVCAR-3 32.5 µM | SNB-19 20.2 µM | UACC-257 > 100 µM | UO-31 > 100 µM

COC12CCC(C(C(=O)c3ccccc3)=C1C(=O)c1ccccc1)C(O)C2 (centres undefined)
inactive: COLO 205 > 100 µM | HCC 2998 > 100 µM | HT-29 > 100 µM | IGROV-1 > 100 µM | KM12 > 100 µM | M14 > 100 µM | NCI-H226 > 100 µM | NCI-H23 > 100 µM | OVCAR-3 > 100 µM | SNB-19 > 100 µM | UACC-257 > 100 µM | UO-31 > 100 µM

O=C(OC1CC(n2cc(F)c(=O)[nH]c2=O)OC1CSC(=O)c1ccccc1)c1ccccc1 (centres undefined)
inactive: ACHN 34.6 µM | COLO 205 29.6 µM | HCC 2998 4.85 µM | HT-29 17.8 µM | IGROV-1 56.2 µM | KM12 27.4 µM | LOX IMVI 50.9 µM | M14 28.1 µM | NCI-H226 31.3 µM | NCI-H23 26.4 µM | OVCAR-3 23.4 µM | SNB-19 59.7 µM | UACC-257 29.2 µM | UO-31 38.8 µM

CCCCN(CCCC)C(=O)C(=O)CC(=O)c1ccc(Br)cc1
inactive: ACHN > 100 µM | COLO 205 > 100 µM | HCC 2998 > 100 µM | HT-29 > 100 µM | IGROV-1 > 100 µM | KM12 > 100 µM | LOX IMVI > 100 µM | M14 > 100 µM | NCI-H226 > 100 µM | NCI-H23 > 100 µM | OVCAR-3 > 100 µM | SNB-19 > 100 µM | UACC-257 > 100 µM | UO-31 > 100 µM

c1ccc2c(C3NCCc4nc[nH]c43)cccc2c1 (centres undefined)
inactive: ACHN > 100 µM | COLO 205 > 100 µM | HCC 2998 > 100 µM | HT-29 > 100 µM | IGROV-1 > 100 µM | KM12 > 100 µM | LOX IMVI > 100 µM | M14 > 100 µM | NCI-H226 > 100 µM | NCI-H23 > 100 µM | OVCAR-3 > 100 µM | UACC-257 > 100 µM | UO-31 > 100 µM

CCCCSC1CCSc2c1ccc1ccccc21 (centres undefined)
inactive: COLO 205 > 100 µM | HCC 2998 65.9 µM | HT-29 71.6 µM | IGROV-1 > 100 µM | KM12 > 100 µM | M14 74.1 µM | NCI-H23 > 100 µM | SNB-19 > 100 µM | UO-31 > 100 µM

CCOC(=O)C1S/C(=N\c2cccc(Cl)c2C)N=C1C (centres undefined)
inactive: ACHN 25.3 µM | COLO 205 21.4 µM | HCC 2998 > 10 µM | HT-29 17 µM | IGROV-1 31.3 µM | KM12 27 µM | LOX IMVI 18.1 µM | NCI-H226 32.8 µM | NCI-H23 > 10 µM | OVCAR-3 22.9 µM | SNB-19 31.4 µM | UACC-257 > 10 µM | UO-31 37.4 µM

N#C/C(=C\c1cc(O)cc(O)c1)C(N)=O
inactive: ACHN > 100 µM | COLO 205 > 100 µM | HCC 2998 > 100 µM | HT-29 > 100 µM | IGROV-1 > 100 µM | KM12 80.5 µM | M14 > 100 µM | NCI-H226 > 100 µM | NCI-H23 > 100 µM | OVCAR-3 > 100 µM | SNB-19 > 100 µM | UACC-257 > 100 µM | UO-31 > 100 µM

C[N+](C)(C)CCC(=O)CC[N+](C)(C)C
inactive: ACHN 17 µM | COLO 205 16.4 µM | HCC 2998 16.2 µM | HT-29 13.5 µM | IGROV-1 87.3 µM | KM12 20 µM | M14 18.3 µM | NCI-H23 24.5 µM | OVCAR-3 18.6 µM | SNB-19 > 100 µM | UACC-257 17.6 µM | UO-31 92 µM

CC12CCC(=O)N1c1cc([N+](=O)[O-])ccc1N2 (centres undefined)
inactive: ACHN > 100 µM | COLO 205 > 100 µM | HT-29 > 100 µM | IGROV-1 > 100 µM | KM12 > 100 µM | LOX IMVI > 100 µM | M14 > 100 µM | NCI-H226 > 100 µM | NCI-H23 > 100 µM | OVCAR-3 > 100 µM | SNB-19 > 100 µM | UACC-257 > 100 µM | UO-31 > 100 µM

O=C(NCCCl)SCCO
inactive: ACHN > 100 µM | COLO 205 > 100 µM | HCC 2998 > 100 µM | HT-29 > 100 µM | IGROV-1 > 100 µM | KM12 > 100 µM | M14 > 100 µM | NCI-H226 > 100 µM | NCI-H23 > 100 µM | OVCAR-3 > 100 µM | SNB-19 > 100 µM | UACC-257 > 100 µM | UO-31 > 100 µM
